Consider 23 molecules from PubChem BioAssay (NCI).

Molecules are shown by their SMILES. Values joined by “and” are separate entries in the source; they are usually repeats but may differ in a detail not shown here. Equal values may be shown once.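 How tested: cells in 96-well plates exposed to compound for 48 hours at five concentrations. GI50 = concentration required for 50% inhibition of growth. The concentration for full growth arrest is given as TGI.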

Common to all, as to assay: inhibition of tumour cell growth, NCI panel, 48 h
Experiment [1] has as its system A549 NSCLC.
Experiment [2] concerns CCRF-CEM leukemia.
Experiment [3] relates to HOP-62 NSCLC.
Experiment [4] relates to KM12 colon.
Experiment [5] deals with M14 melanoma.
In experiment [6] the test system is SF-268 CNS.
The subject of experiment [7] is SK-OV-3 ovarian.
For experiment [8], the system named is TK-10 renal.
In experiment [9] the test system is UACC-257 melanoma.
In experiment [10] the test system is HL-60(TB) leukemia.

Consider `O=C(CI)NC(=O)NC(=O)NCc1ccccc1`, for which the GI50 is 18.7 µM in experiment [1]; 0.51 µM in [2]; 18.5 µM in experiment [3]; 10.9 µM in [4]; 2.89 µM in experiment [5]; 4.4 µM in [6]. For the same molecule, the GI50 in experiment [7] is 15.4 µM; in experiment [8], 1.86 µM; in [9], 11.5 µM. The TGI in experiment [1] came to 42.8 µM; in [2], 2.14 µM; in experiment [3], 42 µM; in experiment [4] it was 24.9 µM; in [5] it was 10.8 µM; in experiment [6], 21.6 µM. Further, the TGI in [7] is 29 µM; in experiment [8] it was 4.12 µM; in [9] it was 23.9 µM.

Consider `COS(=O)c1cc(Cl)cc(Cl)c1OC(=O)CSSCC(=O)Oc1c(Cl)cc(Cl)cc1S(=O)OC` (stereo not given), for which the TGI in experiment [1] is 47.2 µM; in experiment [2], 59.7 µM; in [10], 52.9 µM; in experiment [4], 36.2 µM; in experiment [5] it was 46.3 µM; in [6], 44.9 µM. The TGI in [7] worked out at 80.7 µM; in experiment [8], 84 µM; in [9], 65.3 µM.

As to `COc1cc2c(c3c1c(=O)c1ccccc1n3C)C=C([N+](=O)[O-])C(C)(C)O2`, the TGI in experiment [1], in [2], in [10], in experiment [3], in [4] and in [6] was > 100 µM in each case. In addition, the TGI is > 100 µM in experiment [7], > 100 µM in [8] and > 48 µM in experiment [9].

As to `O=C(O)c1ccccc1C(=O)c1ccco1`, the TGI in [1], in experiment [2], in experiment [10], in [3], in experiment [4] and in experiment [5] was > 100 µM each time. Also, the TGI in experiment [6], in [8] and in experiment [9] was > 100 µM in each case.

`Cc1ccccc1Nc1cc(O)c2c(=O)cc(-c3ccccc3)oc2c1`: the GI50 in experiment [1] is 2.11 µM; in experiment [2], 2.25 µM; in experiment [10] it was 2.16 µM; in experiment [3], 3.23 µM; in experiment [4], 2.38 µM; in [5] it was 2.39 µM. The GI50 is 4.49 µM in experiment [6] and 5.56 µM in [7]. Also, the TGI in [1], in [2], in experiment [10], in experiment [3], in [4] and in experiment [5] was > 100 µM each time. Further, the TGI in [6] and in [7] was > 100 µM in each case.

As to `Cc1ccc(-n2nc(C(OC3OC(CO)C(O)C(O)C3O)C(O)CO)c3nc4cc(C)c(C)cc4nc32)cc1` (stereo not given), the TGI in experiment [2], in experiment [3], in [4], in experiment [5], in [6] and in experiment [7] was > 100 µM each time. The TGI in [8] and in experiment [9] was > 100 µM in each case.

With `NC1=NC(c2ccccc2Cl)c2c(n[nH]c2N)N1` (stereo not given), the GI50 in experiment [1] was 6.96 µM; in experiment [2], 4.59 µM; in experiment [3], 80.1 µM; in [4] it was 29.4 µM; in experiment [5], 18.1 µM; in experiment [6], 26.9 µM. For the same molecule, the GI50 in experiment [7] was > 100 µM; in [8] it was > 100 µM; in experiment [9], 94.6 µM. Further, the TGI in experiment [1], in experiment [2], in [3], in experiment [4], in [5] and in [6] was > 100 µM each time. Besides, the TGI in [7], in [8] and in [9] was > 100 µM in each case.

With `Cc1nc2ccncc2[nH]1`, the TGI in experiment [1], in [2], in experiment [10], in [3], in [5] and in experiment [6] was > 100 µM in each case. Further, the TGI in experiment [8] and in [9] was > 100 µM each time.

For the molecule `Oc1cn(-c2ccc(Cl)cc2)nc1-c1n[nH]c(=S)n1-c1ccc(F)cc1`, the GI50 in experiment [1] was 13.2 µM; in experiment [2], 7.29 µM; in experiment [3] it was 22.7 µM; in [4], 13 µM; in experiment [5] it was 15.1 µM; in experiment [6], 14.7 µM. Besides, the GI50 in experiment [7] is > 100 µM; in [8], 28.1 µM; in experiment [9] it was 24.2 µM. For the same molecule, the TGI was 56 µM in experiment [1]; > 100 µM in experiment [2]; 54.6 µM in experiment [3]; > 100 µM in [4]; 45 µM in experiment [5]; 70.8 µM in experiment [6]. The TGI in experiment [7] was > 100 µM; in experiment [8] it was > 100 µM; in experiment [9] it was 77.4 µM.

For `COc1ccc(/C=C/C(=O)c2c(-c3ccccc3)nn(C)c(=O)c2N2CCCCC2)cc1`, the TGI in experiment [1] was > 100 µM; in experiment [2], 40.2 µM; in experiment [5] it was 66 µM; in experiment [6] it was 66.1 µM; in experiment [7], 77.6 µM; in [8], > 100 µM.

For `COc1cccc(-c2cc(=O)c3cc(N4CCN(C)CC4)ccc3[nH]2)c1`, the GI50 in experiment [1] was 6.99 µM; in experiment [2] it was 0.598 µM; in [10] it was 0.41 µM; in experiment [3], 10.7 µM; in experiment [4] it was 1.35 µM; in experiment [5] it was 2.61 µM. The GI50 in [6] was 4.28 µM; in [7] it was 3.84 µM; in experiment [8], 13.5 µM. The TGI is > 100 µM in experiment [1]; 5.89 µM in experiment [2]; 3.04 µM and 1.23 µM in experiment [10]; > 100 µM in experiment [3]; 4.81 µM and 45.4 µM in experiment [4]; > 100 µM in experiment [5]. Moreover, the TGI is > 100 µM in [6]; 9.29 µM and 87.2 µM in [7]; 94.6 µM in [8].

In the case of `CC(=O)C1(C(=O)C(=[N+]=[N-])S(=O)(=O)c2ccccc2)CC1`, the TGI in experiment [1], in experiment [2], in [10], in experiment [3], in experiment [4] and in experiment [5] was > 100 µM each time. Besides, the TGI in experiment [6], in experiment [8] and in experiment [9] was > 100 µM each time.

On to `N#Cc1ccccc1Sc1ccccc1N`, for which the TGI in experiment [1], in experiment [2], in experiment [10], in experiment [3], in experiment [4] and in experiment [6] was > 100 µM each time. Besides, the TGI in [7], in experiment [8] and in experiment [9] was > 100 µM each time.

`Cc1ccc(S(=O)(=O)Nc2ccccc2C(C)(C)C)cc1`: the TGI in experiment [1] was > 100 µM; in [2], 63.8 µM; in experiment [10], 44.7 µM; in [3] it was 45.9 µM; in experiment [4], 47.1 µM; in experiment [7] it was 81.3 µM. The figures for the TGI in experiment [8] and in experiment [9] were > 100 µM and 35.4 µM, respectively.

`C=C1C(=O)O[C@@H]2C[C@@]3(C)[C@H](O)CCC(=C)[C@@H]3C[C@H]12`: the TGI in experiment [1] stood at 70.5 µM; in experiment [2], 14.1 µM; in [3], 34 µM; in experiment [4] it was 14.4 µM; in experiment [6], 34.9 µM; in experiment [7] it was 52.6 µM. This molecule registered a TGI in [8] of 25 µM.

Turning to `Nc1nc(Cl)c2ncn(Cc3ccc(C45CC6CC(CC(C6)C4)C5)c(OCc4cc(F)c(F)cc4F)c3)c2n1`, the GI50 was 1.94 µM in [1]; 1.66 µM in experiment [2]; 1.06 µM in experiment [10]; 3.23 µM in experiment [3]; 2.93 µM in experiment [4]; 3.01 µM in [6]. For the same molecule, the GI50 was 6.02 µM in [7], 2.88 µM in experiment [8] and 0.494 µM in experiment [9]. In addition, the TGI in experiment [1] amounted to 5.89 µM; in experiment [2], 4.16 µM; in experiment [10] it was 2.85 µM; in experiment [3] it was 10.8 µM; in [4] it was 9.13 µM; in [6] it was 15.2 µM. For the same molecule, the figures for the TGI in experiment [7], in experiment [8] and in experiment [9] were 42.2 µM, 10.3 µM and 3.97 µM, respectively.

On to `Cc1nc2sccn2c1C(=O)NNC(N)=S`, for which the TGI in experiment [1], in experiment [2], in [10], in experiment [3], in [4] and in experiment [6] was > 100 µM in each case. Besides, the TGI in experiment [7], in [8] and in [9] was > 100 µM throughout.

On to `C#Cc1cccc(NC(=O)/C=C\C(=O)O)c1`, for which the TGI in experiment [1], in [2], in experiment [10], in experiment [4], in experiment [6] and in experiment [7] was > 100 µM each time. For the same molecule, the TGI in [8] and in experiment [9] was > 100 µM throughout.

Regarding `O=C(Nc1nc2ccc(S(=O)(=O)Nc3ccc(C4(C(F)(F)F)CC4)cc3)cc2[nH]1)c1cnccn1`, the GI50 in [1] was 2.88 µM; in experiment [3], 3.85 µM; in experiment [4] it was 1.03 µM; in [5] it was 1.12 µM; in experiment [6] it was 4.21 µM; in experiment [8] it was 8.16 µM. In addition, the GI50 in experiment [9] is 10.6 µM. For the same molecule, the TGI in experiment [1] amounted to 21.5 µM; in [3], 23 µM; in [4], 14.4 µM; in experiment [5], 11.1 µM; in experiment [6] it was 20.6 µM; in experiment [8], 22.5 µM. This molecule gave a TGI in experiment [9] of 23.8 µM.

As to `O=C(Nc1ccccc1C(=O)NC(=O)c1ccccc1NC(=O)c1ccccc1)c1ccccc1`, the TGI in experiment [1] was found to be 23.1 µM; in experiment [2], 16.4 µM; in [3] it was 36.4 µM; in [4], 3.17 µM; in [6], 22.2 µM; in experiment [8], 25.9 µM. This molecule also gave a TGI in experiment [9] of 4.94 µM.

Consider `CCOC(=O)C1=C(C)N(NC(N)=O)C2(N)N(NC(N)=O)C(C)=C(C(=O)OCC)C12C#N` (stereo not given), for which the TGI in experiment [1], in [3], in experiment [4], in experiment [5], in experiment [6] and in experiment [7] was > 100 µM in each case. In addition, in [9], the TGI was > 100 µM.

On to `CCOC(=O)[C@@H](C)C[C@H](Cc1ccccc1)NC(=O)c1csc([C@@H](C[C@H](C(C)C)N(C)C(=O)CNC(=O)[C@H]2CCCCN2C)OC(C)=O)n1`, for which the GI50 is 3.49 µM in experiment [1]; 1.08 µM in experiment [2]; 0.312 µM in experiment [10]; 1.87 µM in experiment [3]; 0.556 µM in experiment [4]; 0.804 µM in experiment [5]. The GI50 was 4.89 µM in [6], 0.835 µM in [7] and > 7.9 µM in experiment [8]. Moreover, the TGI was > 14.3 µM in experiment [1]; > 14.3 µM in experiment [2]; 1.01 µM in experiment [10]; > 14.3 µM in experiment [3]; > 14.3 µM in experiment [4]; 7.31 µM in experiment [5]. For the same molecule, the TGI in experiment [6], in [7] and in experiment [8] was > 14.3 µM throughout.

Take `CCOC(=O)C[C@@]12CCCN[C@]1(C)CCc1ccccc12`: the TGI in experiment [1], in experiment [2], in experiment [10], in [3], in [4] and in experiment [5] was > 100 µM throughout. The TGI in experiment [6], in [7] and in experiment [8] was > 100 µM throughout.
